Assay [1] addresses Ephrin type-B receptor 4 (Homo sapiens) (UniProt P54760). Nature of the assay: Inhibition of human EphB4 kinase assessed as residual enzyme activity at 0.1 uM.
For assay [2], the target named is Mitogen-activated protein kinase 8 (Homo sapiens) (UniProt P45983). Nature of the assay: Inhibition of human JNK1alpha1 assessed as residual enzyme activity at 0.1 uM.
The target of assay [3] is MAP kinase-activated protein kinase 2 (Homo sapiens) (UniProt P49137). Nature of the assay: Inhibition of human MAPKAP-K2 kinase assessed as residual enzyme activity at 0.1 uM.
In assay [4] the target is Calcium/calmodulin-dependent protein kinase type IV (Homo sapiens) (UniProt Q16566). Nature of the assay: Inhibition of human CaMK4 kinase assessed as residual enzyme activity at 0.1 uM.
In assay [5] the target is Ribosomal protein S6 kinase alpha-5 (Homo sapiens) (UniProt O75582). Nature of the assay: Inhibition of human MSK1 kinase assessed as residual enzyme activity at 0.1 uM.
The target of assay [6] is Tyrosine-protein kinase ABL1 (Homo sapiens) (UniProt P00519). Nature of the assay: Inhibition of Abl at assessed as residual enzyme activity at 1 uM.
The target in assay [7] is Inhibitor of nuclear factor kappa-B kinase subunit alpha (Homo sapiens) (UniProt O15111). Nature of the assay: Inhibition of human IKKalpha kinase assessed as residual enzyme activity at 0.1 uM.
Assay [8] deals with Mitogen-activated protein kinase kinase kinase 9 (Homo sapiens) (UniProt P80192). Briefly: Inhibition of human MLK1 kinase assessed as residual enzyme activity at 0.1 uM.

Molecules are shown by their SMILES.

Sequence of Ephrin type-B receptor 4 (Homo sapiens) (P54760 whole entry): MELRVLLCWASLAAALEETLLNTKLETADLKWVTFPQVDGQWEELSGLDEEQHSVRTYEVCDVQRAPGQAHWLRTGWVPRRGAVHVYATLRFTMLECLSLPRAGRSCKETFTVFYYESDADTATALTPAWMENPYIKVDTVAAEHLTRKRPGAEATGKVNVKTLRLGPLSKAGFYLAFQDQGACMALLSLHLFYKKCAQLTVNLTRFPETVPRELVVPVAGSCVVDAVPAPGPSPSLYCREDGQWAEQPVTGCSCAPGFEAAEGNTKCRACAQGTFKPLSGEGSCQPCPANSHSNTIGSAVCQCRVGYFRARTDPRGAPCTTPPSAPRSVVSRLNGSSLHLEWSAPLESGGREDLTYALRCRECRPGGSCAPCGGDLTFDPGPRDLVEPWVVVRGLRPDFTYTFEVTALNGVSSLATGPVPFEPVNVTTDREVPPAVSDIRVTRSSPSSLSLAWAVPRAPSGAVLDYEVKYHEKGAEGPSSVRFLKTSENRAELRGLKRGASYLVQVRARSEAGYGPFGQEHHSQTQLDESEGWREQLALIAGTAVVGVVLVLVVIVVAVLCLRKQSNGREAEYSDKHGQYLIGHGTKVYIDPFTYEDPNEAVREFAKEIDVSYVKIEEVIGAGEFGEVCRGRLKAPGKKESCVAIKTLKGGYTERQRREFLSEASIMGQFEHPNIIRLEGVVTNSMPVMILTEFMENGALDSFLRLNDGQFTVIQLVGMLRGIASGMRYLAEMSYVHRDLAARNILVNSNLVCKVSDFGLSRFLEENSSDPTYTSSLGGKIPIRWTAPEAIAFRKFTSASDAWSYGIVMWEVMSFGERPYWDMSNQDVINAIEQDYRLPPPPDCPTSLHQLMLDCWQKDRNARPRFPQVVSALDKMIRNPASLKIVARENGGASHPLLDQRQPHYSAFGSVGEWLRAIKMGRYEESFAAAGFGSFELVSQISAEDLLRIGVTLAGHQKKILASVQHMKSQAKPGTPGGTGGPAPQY
Sequence of MAP kinase-activated protein kinase 2 (Homo sapiens) (P49137 whole entry, looked up): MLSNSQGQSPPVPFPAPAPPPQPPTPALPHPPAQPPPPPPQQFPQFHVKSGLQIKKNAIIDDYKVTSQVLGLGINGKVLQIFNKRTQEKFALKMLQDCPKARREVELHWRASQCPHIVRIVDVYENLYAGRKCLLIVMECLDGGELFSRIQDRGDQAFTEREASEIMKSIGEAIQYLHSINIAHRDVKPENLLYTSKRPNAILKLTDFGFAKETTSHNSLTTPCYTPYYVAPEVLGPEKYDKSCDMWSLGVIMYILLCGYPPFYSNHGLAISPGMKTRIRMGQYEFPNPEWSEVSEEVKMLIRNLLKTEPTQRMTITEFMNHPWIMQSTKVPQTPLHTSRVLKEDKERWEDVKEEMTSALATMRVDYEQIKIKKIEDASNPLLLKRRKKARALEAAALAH
Sequence of Mitogen-activated protein kinase kinase kinase 9 (Homo sapiens) (P80192 whole entry, looked up): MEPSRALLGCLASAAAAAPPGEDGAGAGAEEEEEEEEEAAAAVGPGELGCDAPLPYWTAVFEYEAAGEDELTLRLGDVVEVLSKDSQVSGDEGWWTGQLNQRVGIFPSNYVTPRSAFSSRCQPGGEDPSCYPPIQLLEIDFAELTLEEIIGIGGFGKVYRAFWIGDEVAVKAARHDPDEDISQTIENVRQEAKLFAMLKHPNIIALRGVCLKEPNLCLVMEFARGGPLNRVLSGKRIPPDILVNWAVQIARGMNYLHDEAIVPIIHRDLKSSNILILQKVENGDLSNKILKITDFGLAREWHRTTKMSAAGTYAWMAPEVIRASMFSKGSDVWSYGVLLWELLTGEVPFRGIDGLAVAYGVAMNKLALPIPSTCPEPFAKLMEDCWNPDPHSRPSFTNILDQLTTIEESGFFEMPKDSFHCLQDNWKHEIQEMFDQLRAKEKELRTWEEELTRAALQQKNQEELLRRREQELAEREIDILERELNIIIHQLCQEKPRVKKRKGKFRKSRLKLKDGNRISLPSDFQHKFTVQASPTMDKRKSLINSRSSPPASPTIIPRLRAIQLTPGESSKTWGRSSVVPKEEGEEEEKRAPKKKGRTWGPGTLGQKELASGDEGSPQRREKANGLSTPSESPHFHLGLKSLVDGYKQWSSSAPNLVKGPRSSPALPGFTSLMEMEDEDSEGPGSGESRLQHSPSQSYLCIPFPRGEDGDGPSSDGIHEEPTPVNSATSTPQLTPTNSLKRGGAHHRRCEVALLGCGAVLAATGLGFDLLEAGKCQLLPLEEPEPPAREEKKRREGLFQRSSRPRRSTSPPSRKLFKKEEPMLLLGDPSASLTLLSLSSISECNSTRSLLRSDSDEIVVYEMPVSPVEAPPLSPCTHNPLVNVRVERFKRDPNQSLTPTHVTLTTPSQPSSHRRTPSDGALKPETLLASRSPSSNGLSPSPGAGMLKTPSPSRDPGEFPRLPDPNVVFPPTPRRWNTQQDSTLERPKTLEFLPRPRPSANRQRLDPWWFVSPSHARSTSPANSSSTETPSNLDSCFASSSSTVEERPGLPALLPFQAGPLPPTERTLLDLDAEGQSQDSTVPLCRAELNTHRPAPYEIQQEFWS
Sequence of Mitogen-activated protein kinase 8 (Homo sapiens) (P45983 whole entry): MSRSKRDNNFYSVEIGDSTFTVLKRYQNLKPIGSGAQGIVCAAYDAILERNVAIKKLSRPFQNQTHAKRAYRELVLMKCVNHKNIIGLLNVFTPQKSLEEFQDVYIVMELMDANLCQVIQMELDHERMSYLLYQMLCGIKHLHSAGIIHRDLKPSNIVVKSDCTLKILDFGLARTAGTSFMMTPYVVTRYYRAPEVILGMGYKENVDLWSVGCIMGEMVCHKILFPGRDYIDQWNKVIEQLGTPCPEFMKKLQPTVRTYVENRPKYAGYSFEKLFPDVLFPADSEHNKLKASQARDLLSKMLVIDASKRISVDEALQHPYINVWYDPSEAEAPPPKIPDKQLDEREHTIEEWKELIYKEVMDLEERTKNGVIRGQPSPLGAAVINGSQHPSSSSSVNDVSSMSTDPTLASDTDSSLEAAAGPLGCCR
Sequence of Ribosomal protein S6 kinase alpha-5 (Homo sapiens) (O75582 whole entry, looked up): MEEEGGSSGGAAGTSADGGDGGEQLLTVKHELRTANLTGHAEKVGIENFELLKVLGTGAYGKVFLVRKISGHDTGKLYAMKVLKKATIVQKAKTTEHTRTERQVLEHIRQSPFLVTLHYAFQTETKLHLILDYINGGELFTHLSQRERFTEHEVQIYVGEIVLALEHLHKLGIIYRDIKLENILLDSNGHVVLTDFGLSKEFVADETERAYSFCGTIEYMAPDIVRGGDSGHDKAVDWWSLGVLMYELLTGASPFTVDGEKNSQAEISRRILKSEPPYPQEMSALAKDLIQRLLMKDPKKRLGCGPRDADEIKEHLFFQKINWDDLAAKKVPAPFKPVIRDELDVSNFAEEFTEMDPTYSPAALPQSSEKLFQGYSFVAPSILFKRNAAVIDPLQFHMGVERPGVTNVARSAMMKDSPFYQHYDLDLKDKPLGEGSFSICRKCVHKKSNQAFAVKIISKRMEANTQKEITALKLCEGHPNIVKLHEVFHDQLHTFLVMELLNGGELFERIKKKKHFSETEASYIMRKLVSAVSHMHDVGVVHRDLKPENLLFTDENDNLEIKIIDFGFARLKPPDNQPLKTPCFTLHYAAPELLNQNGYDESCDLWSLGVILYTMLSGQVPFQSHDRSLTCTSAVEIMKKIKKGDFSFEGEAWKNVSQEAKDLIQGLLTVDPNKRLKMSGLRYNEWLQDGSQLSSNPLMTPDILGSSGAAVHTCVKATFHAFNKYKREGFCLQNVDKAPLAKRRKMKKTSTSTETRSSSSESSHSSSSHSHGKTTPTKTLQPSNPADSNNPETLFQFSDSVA
Sequence of Tyrosine-protein kinase ABL1 (Homo sapiens) (P00519 whole entry): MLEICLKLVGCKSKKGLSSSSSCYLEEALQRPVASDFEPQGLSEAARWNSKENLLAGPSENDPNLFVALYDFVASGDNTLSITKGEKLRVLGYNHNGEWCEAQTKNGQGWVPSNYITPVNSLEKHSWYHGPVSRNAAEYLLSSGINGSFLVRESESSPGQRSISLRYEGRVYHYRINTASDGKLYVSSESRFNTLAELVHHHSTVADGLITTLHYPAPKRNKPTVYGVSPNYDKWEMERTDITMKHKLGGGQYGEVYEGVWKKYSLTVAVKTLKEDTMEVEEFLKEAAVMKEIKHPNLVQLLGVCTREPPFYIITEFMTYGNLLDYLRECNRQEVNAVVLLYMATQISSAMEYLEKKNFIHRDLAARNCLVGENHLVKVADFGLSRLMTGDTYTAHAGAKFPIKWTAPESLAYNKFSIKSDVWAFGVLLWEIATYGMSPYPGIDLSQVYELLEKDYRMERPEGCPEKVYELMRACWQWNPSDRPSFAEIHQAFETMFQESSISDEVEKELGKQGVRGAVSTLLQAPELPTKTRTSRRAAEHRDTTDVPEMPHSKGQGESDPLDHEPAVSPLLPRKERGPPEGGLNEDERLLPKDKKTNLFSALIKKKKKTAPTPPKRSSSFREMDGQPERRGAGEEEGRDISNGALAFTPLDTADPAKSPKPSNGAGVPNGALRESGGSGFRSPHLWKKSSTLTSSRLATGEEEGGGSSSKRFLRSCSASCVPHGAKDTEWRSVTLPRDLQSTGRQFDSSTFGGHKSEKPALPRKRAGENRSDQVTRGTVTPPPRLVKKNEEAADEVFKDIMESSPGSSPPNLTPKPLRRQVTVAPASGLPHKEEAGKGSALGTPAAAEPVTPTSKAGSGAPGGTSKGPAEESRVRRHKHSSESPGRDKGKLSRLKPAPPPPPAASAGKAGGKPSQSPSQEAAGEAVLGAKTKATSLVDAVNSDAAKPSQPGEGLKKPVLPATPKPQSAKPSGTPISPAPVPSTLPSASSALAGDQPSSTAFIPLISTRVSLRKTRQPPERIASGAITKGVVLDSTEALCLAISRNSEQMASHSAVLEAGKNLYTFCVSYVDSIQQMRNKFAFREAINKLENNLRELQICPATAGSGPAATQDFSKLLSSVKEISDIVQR

Take `CCN1C(=O)C(C)(C)c2cc3[nH]c4c(c3cc21)CCCc1c(C)n[nH]c1-4`: the Activity in assay [1] is 99%; in assay [2], 109%; in assay [3], 104%; in assay [4], 108%; in assay [5], 96%; in assay [6], 10%. Moreover, the Activity in assay [7] stood at 110%; in assay [8] it was 16%.

These data come from ChEMBL document CHEMBL1155876 (J Med Chem, 2008).
